Results from ChEMBL document CHEMBL3886201, “Compositions and methods for the treatment of malaria” (2016).
pIC50: −log10 of the molar value.

Key:
[1] = target: Plasmepsin II (Plasmodium falciparum, UniProt P46925); experiment: Enzyme Inhibition Assay : Plasmepsin-2 (PM-2; Plm II) and Plasmepsin (PM-4; Plm IV) expression and purification was performed following the published protocols (Istvan E S and Goldberg D E, 2005). The final purified protein was activated by diluting the protein to 0.3 mg/mL in activating buffer (0.1 M citrate pH 4.5, 0.1% Tween-20, 50 mM dithiothreitol) and incubated at room temperature for 40 min, then the activated enzyme was diluted in assay buffer (50 mM sodium acetate pH 4.7, 0.01% Tween-20). The enzymatic inhibition reaction was performed in 384 well plates with a total volume of 20 μl. 10 μl of diluted PM-2 or PM-4 enzyme was added to the 384-well plate except blank wells (blank wells add 10 μL of assay buffer) and 20 nL of serials of diluted 1000× compounds were added to the wells with 520 Echo® Liquid Handling System (Labcyte Inc.). 10 μL PM-2 peptide substrate (AnaSpec, Cat#, 62050) with assay buffer was then added to final concentration of 20 μM to start the reaction.
Plasmepsin II, sequence (P46925 whole entry): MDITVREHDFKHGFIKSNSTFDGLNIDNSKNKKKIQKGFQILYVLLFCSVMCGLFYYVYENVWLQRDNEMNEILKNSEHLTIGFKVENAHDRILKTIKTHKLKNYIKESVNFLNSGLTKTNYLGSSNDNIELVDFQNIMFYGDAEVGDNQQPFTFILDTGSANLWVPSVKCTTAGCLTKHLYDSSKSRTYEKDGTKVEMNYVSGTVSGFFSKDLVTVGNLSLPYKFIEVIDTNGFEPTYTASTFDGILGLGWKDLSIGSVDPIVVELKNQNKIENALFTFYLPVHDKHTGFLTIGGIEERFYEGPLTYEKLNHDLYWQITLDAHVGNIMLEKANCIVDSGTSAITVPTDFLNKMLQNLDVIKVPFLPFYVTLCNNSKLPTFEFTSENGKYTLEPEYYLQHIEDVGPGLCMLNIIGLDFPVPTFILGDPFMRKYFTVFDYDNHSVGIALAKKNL

[2] = target: Beta-secretase 1 (Homo sapiens, UniProt P56817); experiment: The enzymatic inhibition activity assays were determined using the fluorescence resonance energy transfer (FRET) assay. The assays were performed in a 384-well plate format. […] The concentration of Cathepsin D was 20 ng/μL, and 1 ng/μL of Cathepsin E was used. CatD and CatE were activated by incubation in assay buffer (0.1 M NaOAc, 0.2 M NaCl, pH 3.5) at room temperature for 30 min. Subsequently, the rhBACE-1 substrate (R&D Systems, catalog# ES004), the Cathepsin D and Cathepsin E substrate (R&D Systems, Catalog # ES001) were added accordingly to final concentration
Beta-secretase 1, sequence (P56817 whole entry): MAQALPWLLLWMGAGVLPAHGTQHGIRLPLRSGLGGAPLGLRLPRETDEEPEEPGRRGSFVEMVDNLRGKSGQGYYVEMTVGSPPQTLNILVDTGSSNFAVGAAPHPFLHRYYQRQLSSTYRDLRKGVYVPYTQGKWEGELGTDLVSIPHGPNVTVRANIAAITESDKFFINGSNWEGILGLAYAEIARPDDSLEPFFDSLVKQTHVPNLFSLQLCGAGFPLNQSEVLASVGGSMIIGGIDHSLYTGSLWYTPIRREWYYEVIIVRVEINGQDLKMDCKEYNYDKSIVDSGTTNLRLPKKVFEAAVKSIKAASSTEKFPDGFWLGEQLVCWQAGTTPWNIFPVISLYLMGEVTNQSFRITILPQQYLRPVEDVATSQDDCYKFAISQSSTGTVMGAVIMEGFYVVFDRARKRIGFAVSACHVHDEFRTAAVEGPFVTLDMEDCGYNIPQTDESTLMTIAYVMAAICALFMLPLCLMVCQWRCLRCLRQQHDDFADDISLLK

## N=C1NC(c2ccccc2)(c2cccc(Oc3ccccc3)c2)C(=O)N1C1CCCCC1 (stereo not drawn)
[1]
  pIC50: 8.66

## N=C1NC(c2cccc(-c3cccnc3)c2)(C2CC2)C(=O)N1C1CCCCC1 (stereo not drawn)
[2]
  pIC50: 4.77
[1]
  pIC50: 6.90
